Experimental findings from patent US10005769B2, “2,3-dihydrobenzofuran-5YL compounds as DYRK kinase inhibitors” (4SC DISCOVERY GMBH, priority 2013, dated 2018) are described below.

Chain of DYRK1B (Q9Y463 whole entry): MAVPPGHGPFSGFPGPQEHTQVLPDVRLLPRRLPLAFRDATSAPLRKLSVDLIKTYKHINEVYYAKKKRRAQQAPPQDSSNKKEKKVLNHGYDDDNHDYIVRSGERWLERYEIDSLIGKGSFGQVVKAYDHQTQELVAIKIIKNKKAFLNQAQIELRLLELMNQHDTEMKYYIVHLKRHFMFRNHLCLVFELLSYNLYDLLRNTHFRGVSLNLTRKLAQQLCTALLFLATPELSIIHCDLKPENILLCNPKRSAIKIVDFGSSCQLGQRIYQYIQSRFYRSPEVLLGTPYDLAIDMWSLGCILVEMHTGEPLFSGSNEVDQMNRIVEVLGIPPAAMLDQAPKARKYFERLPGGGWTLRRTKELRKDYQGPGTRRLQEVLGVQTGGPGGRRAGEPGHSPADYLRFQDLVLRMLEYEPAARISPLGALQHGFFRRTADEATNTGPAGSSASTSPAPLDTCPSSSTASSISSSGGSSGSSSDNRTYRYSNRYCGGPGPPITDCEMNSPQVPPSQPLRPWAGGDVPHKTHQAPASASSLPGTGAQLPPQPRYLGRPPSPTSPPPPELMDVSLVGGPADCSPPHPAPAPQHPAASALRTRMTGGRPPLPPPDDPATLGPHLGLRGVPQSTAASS

The target of the experiment is DYRK1B (Homo sapiens (Human), UniProt Q9Y463). Put plainly: DYRK1B Kinase Assay (33P ATP, DYRKtide substrate, Reaction Biology Corp.). The experiment is classed as biochemical. The conditions noted are these: 0.3 nM DYRK1B, 20 μM DYRKtide, 10 μM ATP, 25° C., 120 min. How it is done:
The assay was carried out by Reaction Biology Corp., […], Pa., USA according to specifications by Reaction Biology Corp., as detailed herein below and further described in Anastassiadis et al., Nature Biotechnology, 29 (2011) 1039-1045. The substrate DYRKtide (synthetic peptide RRRFRPASPLRGPPK) was dissolved in freshly prepared Base Reaction Buffer (20 mM Hepes (pH 7.5), 10 mM MgCl2, 1 mM EGTA, 0.02% Brij35, 0.02 mg/ml BSA, 0.1 mM Na3VO4, 2 mM DTT, 1% DMSO) at a concentration of 20 μM. DYRK1B was added to the substrate solution in a concentration of 0.3 nM and gently mixed. Dilution series of the compounds according to the present invention in DMSO were prepared. Each dilution was added to a batch of the above reaction mix, followed 20 min later by addition of a mixture of ATP and ^33P ATP (specific activity 0.01 μCi/μl final) to a final concentration of 10 μM. Reactions were carried out at 25° C. for 120 min, followed by spotting the reactions onto P81 ion exchange filter paper. Unbound phosphate was removed by extensive washing of the filters in 0.75% phosphoric acid. […] IC50 values and curve fits were obtained using Prism (Graph Pad Software). DYRK1B used in the above assays are further described in the below table: [table] Exemplary compound dilution series, final concentrations of compound in the assay vessel; the individual concentrations and the range of concentrations covered by the dilution series may differ for each compound, as long as enough data points are obtained to determine the compound's IC50: DYRK 1[…].
On to `Nc1nc(NC(=O)c2csc(-c3ccc4c(c3)CCO4)n2)ns1` [Compound 70, N-(5-Amino-1,2,4-thiadiazol-3-yl)-2-(2,3-dihydro-1-benzofuran-5-yl)-1,3-thiazole-4-carboxamide], for which half-maximal inhibition (IC50) required 73.4 nM. Next, `C=CCSc1n[nH]c(NC(=O)c2csc(-c3ccc4c(c3)CCO4)n2)n1` [Compound 39, N-(3-(Allylthio)-1H-1,2,4-triazol-5-yl)-2-(2,3-dihydrobenzofuran-5-yl)thiazole-4-carboxamide]: 11.9 nM; `O=C(Nc1nc[nH]n1)c1csc(-c2ccc3c(c2)CCO3)n1` [Compound 63, 2-(2,3-Dihydro-1-benzofuran-5-yl)-N-(1H-1,2,4-triazol-3-yl)-1,3-thiazole-4-carboxamide]: 47.1 nM; `O=C(Nc1ncco1)c1csc(-c2ccc3c(c2)CCO3)n1` [Compound 79, 2-(2,3-Dihydro-1-benzofuran-5-yl)-N-(1,3-oxazol-2-yl)-1,3-thiazole-4-carboxamide]: 766 nM. Next, `O=C(c1ccccc1)c1ccc2[nH]c(NC(=O)c3csc(-c4ccc5c(c4)CCO5)n3)nc2c1` [Compound 60, N-(5-Benzoyl-1H-1,3-benzodiazol-2-yl)-2-(2,3-dihydro-1-benzofuran-5-yl)-1,3-thiazole-4-carboxamide]: 38.3 nM. With `Cc1nc(NC(=O)c2csc(-c3ccc4c(c3)CCO4)n2)sc1C` [Compound 74, 2-(2,3-Dihydro-1-benzofuran-5-yl)-N-(dimethyl-1,3-thiazol-2-yl)-1,3-thiazole-4-carboxamide], the midpoint of inhibition, the IC50, lay at 125 nM. On to `CN1CCN(c2nnc(NC(=O)c3csc(-c4ccc5c(c4)CCO5)n3)s2)CC1` [Compound 57, 2-(2,3-Dihydro-1-benzofuran-5-yl)-N-[5-(4-methylpiperazin-1-yl)-1,3,4-thiadiazol-2-yl]-1,3-thiazole-4-carboxamide], for which the IC50 (commonly the concentration needed to halve the response being measured) is 26.4 nM. Consider `O=C(Nc1nc(-c2cccc(F)c2)n[nH]1)c1csc(-c2ccc3c(c2)CCO3)n1` [Compound 68, 2-(2,3-Dihydro-1-benzofuran-5-yl)-N-[3-(3-fluorophenyl)-1H-1,2,4-triazol-5-yl]-1,3-thiazole-4-carboxamide], for which the IC50 was 67.1 nM. Next, `Cc1cc(NC(=O)c2csc(-c3ccc4c(c3)CCO4)n2)n[nH]1` [Compound 66, 2-(2,3-Dihydro-1-benzofuran-5-yl)-N-(5-methyl-1H-pyrazol-3-yl)-1,3-thiazole-4-carboxamide]: 50.5 nM; `CSc1nc(NC(=O)c2csc(-c3ccc4c(c3)CCO4)n2)ns1` [Compound 77, 2-(2,3-Dihydro-1-benzofuran-5-yl)-N-[5-(methylsulfanyl)-1,2,4-thiadiazol-3-yl]-1,3-thiazole-4-carboxamide]: 420 nM. Next, `Cn1c(NC(=O)c2csc(-c3ccc4c(c3)CCO4)n2)nc2ccccc21` [Compound 54, 2-(2,3-Dihydro-1-benzofuran-5-yl)-N-(1-methyl-1H-1,3-benzodiazol-2-yl)-1,3-thiazole-4-carboxamide]: 17.6 nM; “Ethyl 5-(2-(2,3-dihydrobenzofuran-5-yl)thiazole-4-carboxamido)-4H-1,2,4-triazole-3-carboxylate [Compound 20]”: 109 nM; `CC(C)CSc1n[nH]c(NC(=O)c2csc(-c3ccc4c(c3)CCO4)n2)n1` [Compound 34, 2-(2,3-Dihydrobenzofuran-5-yl)-N-(3-(isobutylthio)-1H-1,2,4-triazol-5-yl)thiazole-4-carboxamide]: 38.1 nM. Next, `CSc1nnc(NC(=O)c2csc(-c3ccc4c(c3)CCO4)n2)[nH]1` [Compound 21, 2-(2,3-Dihydrobenzofuran-5-yl)-N-(5-(methylthio)-4H-1,2,4-triazol-3-yl)thiazole-4-carboxamide]: 18.3 nM; `CCOC(=O)c1c[nH]nc1NC(=O)c1csc(-c2ccc3c(c2)CCO3)n1` [Compound 55, Ethyl 3-[2-(2,3-dihydro-1-benzofuran-5-yl)-1,3-thiazole-4-amido]-1H-pyrazole-4-carboxylate]: 20.6 nM; `COC(=O)c1n[nH]c(NC(=O)c2csc(-c3ccc4c(c3)CCO4)n2)n1` [Compound 15, Methyl 5-(2-(2,3-dihydrobenzofuran-5-yl)thiazole-4-carboxamido)-1H-1,2,4-triazole-3-carboxylate]: 152 nM. As for `COc1nc(NC(=O)c2csc(-c3ccc4c(c3)CCO4)n2)ns1` [Compound 64, 2-(2,3-Dihydro-1-benzofuran-5-yl)-N-(5-methoxy-1,2,4-thiadiazol-3-yl)-1,3-thiazole-4-carboxamide], the IC50 worked out at 48.3 nM.

`O=C(Nc1nc(-c2ccncc2)n[nH]1)c1csc(-c2ccc3c(c2)CCO3)n1` [Compound 42, 2-(2,3-Dihydrobenzofuran-5-yl)-N-(3-(pyridin-4-yl)-1H-1,2,4-triazol-5-yl)thiazole-4-carboxamide]: the IC50 was 2.06 nM.

Compound `O=C(Nc1nnc(-c2ccncc2)s1)c1csc(-c2ccc3c(c2)CCO3)n1` [Compound 59, 2-(2,3-Dihydro-1-benzofuran-5-yl)-N-[5-(pyridin-4-yl)-1,3,4-thiadiazol-2-yl]-1,3-thiazole-4-carboxamide] returned an IC50 of 31.5 nM. The compound `CC(C)Sc1n[nH]c(NC(=O)c2csc(-c3ccc4c(c3)CCO4)n2)n1` [Compound 24, 2-(2,3-Dihydrobenzofuran-5-yl)-N-(3-(isopropylthio)-1H-1,2,4-triazol-5-yl)thiazole-4-carboxamide] yielded an IC50 of 17.8 nM.

`O=C(Nc1nnc(N2CCOCC2)s1)c1csc(-c2ccc3c(c2)CCO3)n1` [Compound 56, 2-(2,3-Dihydro-1-benzofuran-5-yl)-N-[5-(morpholin-4-yl)-1,3,4-thiadiazol-2-yl]-1,3-thiazole-4-carboxamide]: the IC50 stood at 21.7 nM. Take `O=C(Nc1nc2cc(C(=O)c3ccc[nH]3)ccc2[nH]1)c1csc(-c2ccc3c(c2)CCO3)n1` [Compound 49, 2-(2,3-Dihydro-1-benzofuran-5-yl)-N-[5-(H-pyrrole-2-carbonyl)-1H-1,3-benzodiazol-2-yl]-1,3-thiazole-4-carboxamide]: 6.63 nM corresponded to half-maximal inhibition (IC50).

Compound `O=C(Nc1nccs1)c1csc(-c2ccc3c(c2)CCO3)n1` [Compound 65, 2-(2,3-Dihydro-1-benzofuran-5-yl)-N-(1,3-thiazol-2-yl)-1,3-thiazole-4-carboxamide] showed an IC50 of 48.7 nM. `O=C(Nc1nc(SCc2ccc(Cl)cc2)n[nH]1)c1csc(-c2ccc3c(c2)CCO3)n1` [Compound 33, N-(3-((4-Chlorobenzyl)thio)-1H-1,2,4-triazol-5-yl)-2-(2,3-dihydrobenzofuran-5-yl)thiazole-4-carboxamide] returned an IC50 of 337 nM. Next, `O=C(Nc1nc2ccccc2[nH]1)c1csc(-c2ccc3c(c2)CCO3)n1` [Compound 50, N-(1H-1,3-Benzodiazol-2-yl)-2-(2,3-dihydro-1-benzofuran-5-yl)-1,3-thiazole-4-carboxamide]: 6.73 nM. Next, `O=C(Nc1ncns1)c1csc(-c2ccc3c(c2)CCO3)n1` [Compound 73, 2-(2,3-Dihydro-1-benzofuran-5-yl)-N-(1,2,4-thiadiazol-5-yl)-1,3-thiazole-4-carboxamide]: 114 nM; `CS(=O)(=O)c1n[nH]c(NC(=O)c2csc(-c3ccc4c(c3)CCO4)n2)n1` [Compound 43, 2-(2,3-Dihydrobenzofuran-5-yl)-N-(3-(methylsulfonyl)-1H-1,2,4-triazol-5-yl)thiazole-4-carboxamide]: 535 nM.

In turn, `O=C(Nc1nc(CCc2ccccc2)n[nH]1)c1csc(-c2ccc3c(c2)CCO3)n1` [Compound 36, 2-(2,3-Dihydrobenzofuran-5-yl)-N-(3-phenethyl-1H-1,2,4-triazol-5-yl)thiazole-4-carboxamide] showed an IC50 of 112 nM. Next, `O=C(Nc1nnc(N2CCCCC2)s1)c1csc(-c2ccc3c(c2)CCO3)n1` [Compound 52, 2-(2,3-Dihydro-1-benzofuran-5-yl)-N-[5-(piperidin-1-yl)-1,3,4-thiadiazol-2-yl]-1,3-thiazole-4-carboxamide]: 12.6 nM; `Cc1nsc(NC(=O)c2csc(-c3ccc4c(c3)CCO4)n2)n1` [Compound 69, 2-(2,3-Dihydro-1-benzofuran-5-yl)-N-(3-methyl-1,2,4-thiadiazol-5-yl)-1,3-thiazole-4-carboxamide]: 72.6 nM; `CCCSc1n[nH]c(NC(=O)c2csc(-c3ccc4c(c3)CCO4)n2)n1` [Compound 30, 2-(2,3-Dihydrobenzofuran-5-yl)-N-(3-(propylthio)-1H-1,2,4-triazol-5-yl)thiazole-4-carboxamide]: 7.97 nM. The compound `O=C(Nc1nnc(C(=O)O)[nH]1)c1csc(-c2ccc3c(c2)CCO3)n1` [Compound 31, 5-(2-(2,3-Dihydrobenzofuran-5-yl)thiazole-4-carboxamido)-4H-1,2,4-triazole-3-carboxylic acid] showed an IC50 of 68.1 nM. Turning to `CCOC(=O)CSc1n[nH]c(NC(=O)c2csc(-c3ccc4c(c3)CCO4)n2)n1` [Compound 61, Ethyl 2-({5-[2-(2,3-dihydro-1-benzofuran-5-yl)-1,3-thiazole-4-amido]-1H-1,2,4-triazol-3-yl}sulfanyl)acetate], the IC50 was 39.1 nM.
